Some results are limits rather than exact numbers.

In turn, `Cc1cnc(-n2cc(C(F)(F)F)cn2)nc1Oc1cccc(C(F)(F)F)c1` yielded a melting point of 103 to 105 °C.
As to `O=S(=O)(c1ccccc1)C(F)(F)C(O)c1ccc(Cl)cc1` (configuration not stated), the melting point lay within 100 to 102 °C.
For the compound `CCOC(=O)CC1CN=C(c2cc3c(C)ccc(N(C)S(=O)(=O)c4cccs4)c3[nH]2)S1` (configuration not stated), the melting point fell in the range of 109 to 110 °C.
Consider `CS(=O)(=O)ON=C(Cl)c1ccc(Cl)cc1`, for which the melting point fell in the range of 80 to 82 °C.
Compound `COc1ccc(C(=O)O)c(OCc2ccccc2)c1` yielded a melting point of 99 to 101 °C.
`COC(=O)c1cc(Cl)ccc1-n1c(C)nnc1CCl` gave a melting point of 123 to 124 °C.
Consider `CCC1=C(C(=O)O)C(C(F)(F)F)Oc2ccc(Cl)cc21` (configuration not stated), for which the melting point lay within 171 to 172 °C.
On to `COc1ccc(Cn2cnc3c(-c4ccco4)nc(-c4ccccc4)nc32)cc1`, for which the melting point lay in the range of 140 to 142 °C.
On to `O=C(O)C(=O)c1ccc(OCCOc2cccc3ccccc23)cc1`, for which the melting point is 124 to 125 °C.
The figure for `Cn1ncc2c1CC(C)(C)c1cnn(C)c1-2` is 105 to 108 °C; for `c1ccc(Sc2cc(Sc3ccccc3)ncn2)cc1` it is 117 °C; for `CN(C)CCCNC1=C2N=c3cc(Cl)ccc3=C2Oc2ccccc2N1C` it is 156 to 157 °C.
The compound `CCc1c(-c2ccc(O)cc2)c2cc(C(C)=O)c3ccc(O)c1n32` yielded a melting point of 167 to 173 °C.
The compound `C#CCOc1ccc2c(c1)nc(N)c1nc(COCC)n(CC(C)(C)NS(C)(=O)=O)c12` yielded a melting point of 175 to 176 °C.
For the compound `Cc1cc(C(O)(C(F)(F)F)C(F)(F)F)cc(C)c1NCCN`, the melting point is 158 to 161 °C.
To `C=C1C(O)C(COC(=O)CCCCCCCCCCCCCCCCC)OC1n1ccc(NC(=O)CCCCCCCCCCCCCCCCC)nc1=O` (configuration not stated) belongs 135 to 139 °C; to `CCN(CC)CCNC(=O)c1cccc2c(=O)c(C)c(-c3cccc(Cl)c3)oc12`, 116 to 117 °C; to `COc1cc(OC)c2c(=O)[nH]c(-c3ccc(Cc4nnn[nH]4)cc3)nc2c1`, 295 to 296 °C.
For the compound `CCCCCCCCCCc1ccc(C(=O)c2cc(Br)c(C(=O)c3ccc(CCCCCCCCCC)cc3)cc2Br)cc1`, the melting point was 128 to 129 °C.
Take `CCCCCCn1c(CN2CCC[C@H]2C(=O)O)nc2cc(-c3ccccc3-c3nn[nH]n3)ccc21`: the melting point was in the range of 150 to 155 °C.
Consider `Nc1ncnc2c1c(-c1ccc(Oc3ccccc3)cc1)cn2CCCCCCCCN1C(=O)c2ccccc2C1=O`, for which the melting point is 85 to 86 °C.
`CCOC(=O)N1CCN(c2ccc(O)cc2)CC1` gave a melting point of 169 °C.
To `Cc1cccc(C)c1NC(N)=NOC1CCCCO1` (configuration not stated) belongs 196 to 197 °C; to `CN1C(=O)CN2CC(CCl)OC2(c2ccccc2)c2cc(Cl)ccc21` (configuration not stated), 140 to 142 °C.
Consider `CCOC(=O)CCc1c(C)c2c(O)cc(C(C)CCCc3ccccc3)cc2oc1=O` (configuration not stated), for which the melting point was in the range of 58 to 70 °C.
Turning to `Cc1cc(C)c2ncc(NC(=O)c3cc(C(C)(C)C)c(O)c(C(C)(C)C)c3)c(-c3ccccc3Cl)c2c1`, the melting point was 127 to 129 °C.
In turn, `COc1ccc2c(c1)N(C(C)=O)c1cccc(SC)c1S2` displayed a melting point of 106 to 108 °C.
`CNC(=O)[C@H]1S[C@@H](n2cnc3c(NC)nc(Cl)nc32)[C@H](O)[C@@H]1O` returned a melting point of 130 to 141 °C.
Compound `COc1cc(Nc2nccc(-c3ccc(NCCN4CCCC4)nc3)n2)cc(OC)c1OC` yielded a melting point of 165 to 166 °C.
The figure for `CSc1ccc(N=Cc2ccc(F)cc2)cc1` is 157 to 158 °C.
For the compound `CCCCCCCCCCCCCCCCNc1ccc(C(=O)NS(=O)(=O)c2ccccc2)cc1`, the melting point lay in the range of 136 to 138 °C.
The figure for `CCC(O)(c1ccc(F)cc1)c1ccc(OCCN2CCCCC2)cc1` (configuration not stated) is 72 to 73 °C.
`CNCC1Cc2cc(OC)cc(-c3cc(OC)ccc3OC)c2O1` (configuration not stated) showed a melting point of 144 to 145 °C.
Regarding `O=Cc1cccc(OCc2ccc3ccccc3c2)c1`, the melting point is 105 to 106 °C.
Regarding `CCOC(=O)/C=C(C)/C=C/C=C(\C)C1=Cc2cc(C(C)(C)C)ccc2OC1`, the melting point stood at 129 °C.
Regarding `O=C(O)C1=CCC2CC(=O)C12` (configuration not stated), the melting point was 52 to 56 °C.
In the case of `CC(=O)Nc1nc(S(=O)(=O)Cl)n[nH]1`, the melting point turned out to be 177 °C.
In turn, `CC(=O)SC(CC(=O)c1cccc(Cl)c1)C(=O)O` (configuration not stated) displayed a melting point of 85 to 86 °C.
`N#Cc1ccc(COc2cccc(OCc3ccc4ccccc4n3)c2)cc1` returned a melting point of 112 °C.
To `CCC(C(=O)O)c1ccc2c(c1)Cc1ccccc1S2` (configuration not stated) belongs 74 to 77 °C.
In turn, `CCN(CCO)CCCC1CCN(S(=O)(=O)c2ccc(C(F)(F)F)cc2)CC1` had a melting point of 71.3 to 72.7 °C.
Compound `CC(=O)c1cccc(C)c1NC(=O)CCl` showed a melting point of 88 to 89 °C.
Turning to `CCNc1nc(S(C)=O)ncc1C(=O)OCC` (configuration not stated), the melting point is 54 to 56 °C.
Regarding `O=C(Nc1ccc(I)cc1)c1ccncc1`, the melting point fell in the range of 245 to 250 °C.
`COC(=O)c1c2ccccc2nc2cc(Cl)ccc12` gave a melting point of 148 °C.
With `COc1cccc(CN2CCN(CCCOc3ccc4c(C)cc(=O)[nH]c4c3)CC2)c1`, the melting point was 149 to 150 °C.
Consider `CCOC(=O)c1ccc(C(=O)Nc2ccc3c(c2)CCCC(=O)N3C)cc1`, for which the melting point was 184 to 185 °C.
For `Cc1cc(NC(=O)c2cc3cc(F)ccc3n2Cc2ccncc2)cnc1N(C)C`, the melting point fell in the range of 282 to 283 °C.
`COC(=O)c1cc(SCc2ccccc2)c(Cc2ccccc2)c(S(N)(=O)=O)c1`: the melting point lay in the range of 139 to 140 °C.
`CCCCN(CCCC)C(=O)C1=NN(c2ccccc2)C(C(N)=O)=NN1c1ccccc1`: the melting point was in the range of 160 to 161 °C.
To `O=C(O)CSC1CCCc2cc3c(cc21)OCO3` (configuration not stated) belongs 138 to 139 °C; to `Nc1cc(Cl)ccc1CO`, 104 to 105 °C; to `C=C1N(c2ccccc2)C(=O)OC12CCNCC2`, 185 to 186 °C.
With `FC(F)(F)c1ccc(COc2ccnc(CCl)c2)cc1`, the melting point lay in the range of 133 to 135 °C.
`COC(=O)CCCc1cc2cc(C(F)(F)F)ccc2n1S(=O)(=O)c1ccc2nc(C)oc2c1` yielded a melting point of 78 to 82 °C.
`COc1cccc2c(Oc3ccccc3)cccc12` yielded a melting point of 65 to 66 °C.
In turn, `CNC(=O)c1ccc(C=CC(=O)NCC(=O)N(C)c2ccc(Cl)c(CBr)c2Cl)cc1` had a melting point of 212 to 216 °C.
The figure for `CC(=O)c1sc(-c2ccncc2)c(-c2ccncc2)c1C` is 140 to 142 °C; for `COc1cc(Nc2cc(-c3nnc(C)o3)ccn2)cc(C(F)(F)F)c1` it is 241 to 242 °C; for `CN1CCN(c2ccc3c(ccc4c(=O)cc(C(=O)Nc5ccc(N6CCOCC6)cc5)oc43)c2)CC1` it is 217 to 218 °C.
The compound `CC(C)(Oc1ccc(OCc2nc(-c3ccc(C(F)(F)F)cc3)no2)cc1)C(=O)O` gave a melting point of 164 °C.
`COC(=O)c1cc2cc(NC(=O)c3cc4cc(N)ccc4[nH]3)ccc2[nH]1` gave a melting point of more than 350 °C.
`O=C1COc2cc(NC(=O)C(=O)O)ccc2N1` returned a melting point of 232 to 236 °C.
On to `CCCc1nn(C)c2c(=O)[nH]c(-c3cc(C(O)CN4CCNCC4)ccc3OCC)nc12` (configuration not stated), for which the melting point fell in the range of 130 to 140 °C.
The figure for `COc1cc(S(C)=O)c(C)cc1O` (configuration not stated) is 165 to 166 °C; for `CC(=O)NNC(=O)c1cccc(I)c1` it is 156 to 158 °C.
In turn, `CC(C)(C)c1ccc(Oc2ccc(NC(=O)c3ccccc3C(c3ccc(O)cc3)c3ccc(O)cc3)cn2)cc1` displayed a melting point of 121 to 125 °C.
As to `OCC1(c2ccccc2)CCCC1`, the melting point lay within 41 to 44 °C.
`c1coc(P(CCP(c2ccco2)c2ccco2)c2ccco2)c1` yielded a melting point of 94 to 96 °C.
Consider `Fc1ccc(Nc2ncnc3cc(-c4ccoc4)ccc23)cc1Cl`, for which the melting point lay in the range of 249 to 250 °C.
`CCN(C(=O)C1CC1)c1cccc(-c2ccnc3c(C#N)cnn23)c1`: the melting point is 166 to 168 °C.
The figure for `CC(C)CCSc1cc(C(=O)O)cc(N)c1-c1ccccc1` is 124 to 126 °C; for `NS(=O)(=O)c1cc2ncccc2o1` it is 219 to 221 °C.
`COc1cc(OC)c(C(=O)n2cccc2Br)cc1OC` registered a melting point of 120 to 121 °C.
`CCOCc1nc2c(N)nc3ccccc3c2n1NCCCNS(C)(=O)=O` came in with a melting point of 148 to 150 °C.
`Nc1nc2c(sc(=O)n2CCCCO)c(=O)[nH]1`: the melting point was in the range of 258 to 260 °C.
Take `Cc1ccnc(C(C#N)Sc2nc(N)cc(Cl)n2)c1` (configuration not stated): the melting point lay in the range of 145 to 146 °C.
For the compound `COc1cc(C)c(C(=O)c2c(C)c(C)cc(C)c2C)c(OC)c1OC`, the melting point is 143 °C.
Compound `CNC(=O)N(O)C(C)c1ccc(F)cc1F` (configuration not stated) yielded a melting point of 125 to 134 °C.
For the compound `NC(=O)c1cc(OCCCCNCc2ccccc2)ccc1O`, the melting point is 78 to 81 °C.
The figure for `O=c1cnc2cc3[nH]c(-c4ccncc4)nc3cc2[nH]1` is more than 320 °C; for `CCCC(C)SC1NN=C(c2ccncc2)N1c1ccccc1` (configuration not stated) it is 96 to 97 °C; for `CS(=O)(=O)c1ccc(-c2[nH]c3ccc(Cl)cc3c2-c2ccc(Cl)cc2)cc1` it is 281 to 283 °C.
For the compound `COC(=O)C(=O)c1ccc(OCCOc2ccnc3ccccc23)cc1`, the melting point fell in the range of 135 to 136 °C.
To `COc1ccccc1N1CCN(CCn2c(=O)c3ccsc3n(C)c2=O)CC1` belongs 174 to 176 °C.
On to `CCN(CC)CC1CN=C(N)O1` (configuration not stated), for which the melting point came out at 90 °C.
`Cc1cc(OCc2nc3ccccc3s2)ccc1N` registered a melting point of 110 to 111 °C.
To `CCc1ccc(NN)c(Cl)c1` belongs 55 to 57 °C; to `CC(=O)OC1CCN(Cc2nc(-c3cc(C(C)(C)C)c(O)c(C(C)(C)C)c3)cs2)CC1`, 160 to 161 °C; to `CCN(CC)c1ccc(C=CC2=NC(C#N)=C(C#N)N=CC2)cc1`, more than 300 °C.
To `COc1ccc(C2c3c(C)c(N4CCC(c5ccc(OC)c(OC)c5)CC4)c(C)c(C)c3OC2(C)C)cc1` (configuration not stated) belongs 154 to 156 °C; to `CCC(=O)NCCCSc1ccncc1`, 50 to 51 °C.
